Measured values from the supplement of paper PMC10307832.

Legend:
Test in all cases: relative viability (nuclei count vs DMSO), 5 days (fraction); higher = more cells survive
NCI-H838 = test system: NCI-H838
Method in brief: (§1)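 Five library-drug doses in √10 steps were combined with a fixed anchor-drug dose, or a single drug was given alone, by pin tool to lung cancer cell lines in 1536-well plates the day after seeding. Nuclei were stained and counted after 5 days. Relative viability is the nuclei count in treated wells over that in vehicle wells, taken as the median of duplicate plates.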

NCI-H2087 = test system: NCI-H2087
Method in brief: as §1

NCI-H1651 = test system: NCI-H1651
Method in brief: as §1

EPLC-272H = test system: EPLC-272H
Method in brief: as §1

EMC-BAC-2 = test system: EMC-BAC-2
Method in brief: as §1

NCI-H520 = test system: NCI-H520
Method in brief: as §1

LU99A = test system: LU99A
Method in brief: as §1

COR-L23 = test system: COR-L23
Method in brief: as §1

NCI-H2085 = test system: NCI-H2085
Method in brief: as §1

HCC-827 = test system: HCC-827
Method in brief: as §1

NCI-H1563 = test system: NCI-H1563
Method in brief: as §1

NCI-H2405 = test system: NCI-H2405
Method in brief: as §1

LCLC-103H = test system: LCLC-103H
Method in brief: as §1

NCI-H650 = test system: NCI-H650
Method in brief: as §1

HCC-44 = test system: HCC-44
Method in brief: as §1

NCI-H1793 = test system: NCI-H1793
Method in brief: as §1

NCI-H1944 = test system: NCI-H1944
Method in brief: as §1

SK-MES-1 = test system: SK-MES-1
Method in brief: as §1

H3255 = test system: H3255
Method in brief: as §1

ChaGo-K-1 = test system: ChaGo-K-1
Method in brief: as §1

NCI-H2023 = test system: NCI-H2023
Method in brief: as §1

NCI-H1395 = test system: NCI-H1395
Method in brief: as §1

Which relative viability (NCI-H838; first compound 0.01 µM) does the source give for O=c1cc(N2CCOCC2)oc2c(-c3cccc4c3sc3ccccc34)cccc12 + N=C(N)NC(=N)NCCc1ccccc1 [Phenformin] (partner 250 µM) here?
The relative viability was 0.473.

And the relative viability (NCI-H838; first compound 0.03162 µM)?
The relative viability was 0.547.

What about the relative viability (NCI-H838; first compound 0.1 µM) of the same compound?
The relative viability was 0.534.

And the relative viability (NCI-H838; first compound 0.3162 µM)?
Its relative viability is 0.6.

What about the relative viability (NCI-H838; first compound 1 µM) of the same compound?
Its relative viability is 0.543.

What about the relative viability (NCI-H2087; first compound 0.01 µM) of the same compound?
Its relative viability is 0.423.

What about the relative viability (NCI-H2087; first compound 0.03162 µM) of the same compound?
Its relative viability is 0.535.

What about the relative viability (NCI-H2087; first compound 0.1 µM) of the same compound?
Its relative viability is 0.45.

What about the relative viability (NCI-H2087; first compound 0.3162 µM) of the same compound?
The relative viability was 0.46.

What about the relative viability (NCI-H2087; first compound 1 µM) of the same compound?
The relative viability was 0.431.

What about the relative viability (NCI-H1651; first compound 0.01 µM) of the same compound?
The relative viability was 0.315.

And the relative viability (NCI-H1651; first compound 0.03162 µM)?
Its relative viability is 0.366.

What about the relative viability (NCI-H1651; first compound 0.1 µM) of the same compound?
The relative viability was 0.352.

And the relative viability (NCI-H1651; first compound 0.3162 µM)?
The relative viability was 0.345.

What about the relative viability (NCI-H1651; first compound 1 µM) of the same compound?
Its relative viability is 0.333.

And the relative viability (EPLC-272H; first compound 0.01 µM)?
The relative viability was 0.394.

What about the relative viability (EPLC-272H; first compound 0.03162 µM) of the same compound?
Its relative viability is 0.316.

What about the relative viability (EPLC-272H; first compound 0.3162 µM) of the same compound?
Its relative viability is 0.286.

And the relative viability (EPLC-272H; first compound 1 µM)?
The relative viability was 0.298.

And the relative viability (EMC-BAC-2; first compound 0.01 µM)?
Its relative viability is 0.423.

What about the relative viability (EMC-BAC-2; first compound 0.03162 µM) of the same compound?
Its relative viability is 0.57.

And the relative viability (EMC-BAC-2; first compound 0.1 µM)?
The relative viability was 0.55.

What about the relative viability (EMC-BAC-2; first compound 0.3162 µM) of the same compound?
Its relative viability is 0.556.

And the relative viability (EMC-BAC-2; first compound 1 µM)?
The relative viability was 0.564.

And the relative viability (NCI-H520; first compound 0.01 µM)?
The relative viability was 0.663.

And the relative viability (NCI-H520; first compound 0.03162 µM)?
Its relative viability is 0.555.

And the relative viability (NCI-H520; first compound 0.1 µM)?
The relative viability was 0.547.

What about the relative viability (NCI-H520; first compound 0.3162 µM) of the same compound?
The relative viability was 0.672.

And the relative viability (NCI-H520; first compound 1 µM)?
The relative viability was 0.644.

And the relative viability (LU99A; first compound 0.01 µM)?
Its relative viability is 0.558.

What about the relative viability (LU99A; first compound 0.03162 µM) of the same compound?
The relative viability was 0.833.

What about the relative viability (LU99A; first compound 0.1 µM) of the same compound?
Its relative viability is 0.925.

And the relative viability (LU99A; first compound 0.3162 µM)?
Its relative viability is 0.833.

And the relative viability (LU99A; first compound 1 µM)?
Its relative viability is 0.887.

And the relative viability (COR-L23; first compound 0.01 µM)?
Its relative viability is 0.439.

And the relative viability (COR-L23; first compound 0.03162 µM)?
The relative viability was 0.466.

And the relative viability (COR-L23; first compound 0.1 µM)?
Its relative viability is 0.43.

What about the relative viability (COR-L23; first compound 0.3162 µM) of the same compound?
The relative viability was 0.411.

And the relative viability (COR-L23; first compound 1 µM)?
The relative viability was 0.449.

What about the relative viability (NCI-H2085; first compound 0.01 µM) of the same compound?
The relative viability was 0.713.

And the relative viability (NCI-H2085; first compound 0.03162 µM)?
Its relative viability is 0.708.

What about the relative viability (NCI-H2085; first compound 0.1 µM) of the same compound?
The relative viability was 0.625.

What about the relative viability (NCI-H2085; first compound 0.3162 µM) of the same compound?
Its relative viability is 0.745.

What about the relative viability (NCI-H2085; first compound 1 µM) of the same compound?
Its relative viability is 0.734.

And the relative viability (HCC-827; first compound 0.01 µM)?
The relative viability was 0.368.

What about the relative viability (HCC-827; first compound 0.03162 µM) of the same compound?
Its relative viability is 0.391.

And the relative viability (HCC-827; first compound 0.1 µM)?
The relative viability was 0.396.

What about the relative viability (HCC-827; first compound 0.3162 µM) of the same compound?
Its relative viability is 0.405.

What about the relative viability (HCC-827; first compound 1 µM) of the same compound?
Its relative viability is 0.402.

And the relative viability (NCI-H1563; first compound 0.01 µM)?
Its relative viability is 0.644.

What about the relative viability (NCI-H1563; first compound 0.03162 µM) of the same compound?
Its relative viability is 0.733.

What about the relative viability (NCI-H1563; first compound 0.1 µM) of the same compound?
The relative viability was 0.635.

And the relative viability (NCI-H1563; first compound 0.3162 µM)?
Its relative viability is 0.671.

What about the relative viability (NCI-H1563; first compound 1 µM) of the same compound?
Its relative viability is 0.612.

What about the relative viability (NCI-H2405; first compound 0.01 µM) of the same compound?
The relative viability was 0.364.

What about the relative viability (NCI-H2405; first compound 0.03162 µM) of the same compound?
Its relative viability is 0.38.

What about the relative viability (NCI-H2405; first compound 0.1 µM) of the same compound?
The relative viability was 0.356.

And the relative viability (NCI-H2405; first compound 0.3162 µM)?
The relative viability was 0.424.

And the relative viability (NCI-H2405; first compound 1 µM)?
Its relative viability is 0.404.

And the relative viability (LCLC-103H; first compound 0.01 µM)?
Its relative viability is 0.317.

What about the relative viability (LCLC-103H; first compound 0.03162 µM) of the same compound?
Its relative viability is 0.31.

What about the relative viability (LCLC-103H; first compound 0.1 µM) of the same compound?
Its relative viability is 0.331.

What about the relative viability (LCLC-103H; first compound 0.3162 µM) of the same compound?
Its relative viability is 0.377.

What about the relative viability (LCLC-103H; first compound 1 µM) of the same compound?
The relative viability was 0.341.

What about the relative viability (NCI-H650; first compound 0.03162 µM) of the same compound?
Its relative viability is 0.484.

What about the relative viability (NCI-H650; first compound 0.1 µM) of the same compound?
The relative viability was 0.302.

And the relative viability (NCI-H650; first compound 0.3162 µM)?
Its relative viability is 0.511.

And the relative viability (NCI-H650; first compound 1 µM)?
Its relative viability is 0.413.

What about the relative viability (HCC-44; first compound 0.01 µM) of the same compound?
The relative viability was 0.249.

What about the relative viability (HCC-44; first compound 0.03162 µM) of the same compound?
The relative viability was 0.187.

And the relative viability (HCC-44; first compound 0.1 µM)?
The relative viability was 0.134.

And the relative viability (HCC-44; first compound 0.3162 µM)?
The relative viability was 0.366.

And the relative viability (HCC-44; first compound 1 µM)?
The relative viability was 0.139.

And the relative viability (NCI-H1793; first compound 0.01 µM)?
Its relative viability is 0.386.

What about the relative viability (NCI-H1793; first compound 0.1 µM) of the same compound?
The relative viability was 0.345.

And the relative viability (NCI-H1793; first compound 0.3162 µM)?
Its relative viability is 0.375.

What about the relative viability (NCI-H1793; first compound 1 µM) of the same compound?
The relative viability was 0.363.

And the relative viability (NCI-H1944; first compound 0.01 µM)?
Its relative viability is 0.212.

What about the relative viability (NCI-H1944; first compound 0.03162 µM) of the same compound?
The relative viability was 0.208.

What about the relative viability (NCI-H1944; first compound 0.1 µM) of the same compound?
Its relative viability is 0.213.

What about the relative viability (NCI-H1944; first compound 0.3162 µM) of the same compound?
Its relative viability is 0.207.

And the relative viability (NCI-H1944; first compound 1 µM)?
The relative viability was 0.237.

And the relative viability (SK-MES-1; first compound 0.01 µM)?
The relative viability was 0.652.

And the relative viability (SK-MES-1; first compound 0.03162 µM)?
Its relative viability is 0.688.

And the relative viability (SK-MES-1; first compound 0.1 µM)?
Its relative viability is 0.688.

And the relative viability (SK-MES-1; first compound 0.3162 µM)?
Its relative viability is 0.671.

And the relative viability (SK-MES-1; first compound 1 µM)?
The relative viability was 0.668.

What about the relative viability (H3255; first compound 0.01 µM) of the same compound?
Its relative viability is 0.388.

What about the relative viability (H3255; first compound 0.03162 µM) of the same compound?
The relative viability was 0.334.

And the relative viability (H3255; first compound 0.1 µM)?
Its relative viability is 0.328.

And the relative viability (H3255; first compound 0.3162 µM)?
Its relative viability is 0.368.

And the relative viability (H3255; first compound 1 µM)?
The relative viability was 0.35.

And the relative viability (ChaGo-K-1; first compound 0.01 µM)?
Its relative viability is 0.401.

And the relative viability (ChaGo-K-1; first compound 0.03162 µM)?
Its relative viability is 0.579.

And the relative viability (ChaGo-K-1; first compound 0.1 µM)?
Its relative viability is 0.386.

What about the relative viability (ChaGo-K-1; first compound 0.3162 µM) of the same compound?
Its relative viability is 0.547.

And the relative viability (ChaGo-K-1; first compound 1 µM)?
The relative viability was 0.468.

What about the relative viability (NCI-H2023; first compound 0.01 µM) of the same compound?
The relative viability was 0.424.

What about the relative viability (NCI-H2023; first compound 0.03162 µM) of the same compound?
The relative viability was 0.397.

What about the relative viability (NCI-H2023; first compound 0.1 µM) of the same compound?
The relative viability was 0.482.

What about the relative viability (NCI-H2023; first compound 0.3162 µM) of the same compound?
Its relative viability is 0.425.

And the relative viability (NCI-H2023; first compound 1 µM)?
The relative viability was 0.385.

And the relative viability (NCI-H1395; first compound 0.01 µM)?
Its relative viability is 0.435.

What about the relative viability (NCI-H1395; first compound 0.03162 µM) of the same compound?
The relative viability was 0.45.

What about the relative viability (NCI-H1395; first compound 0.1 µM) of the same compound?
The relative viability was 0.417.

What about the relative viability (NCI-H1395; first compound 0.3162 µM) of the same compound?
Its relative viability is 0.461.

What about the relative viability (NCI-H1395; first compound 1 µM) of the same compound?
The relative viability was 0.447.
